The source of these data is patent US7943616B2, “Azaindoles for inhibiting aurora2 and other kinases” (Aventis Pharmaceuticals Inc., priority 2001, dated 2011).

Some results are limits rather than exact numbers.

Turning to `c1cncc(OCCCn2cc(-c3cc4nccnc4[nH]3)c3ccccc32)c1` [Example 6, 6-{1-[3-(Pyridin-3-yloxy)-propyl]-1H-indol-3-yl}-5H-pyrrolo[2,3-b]pyrazine], the melting point was in the range of 208 to 209 °C.

Regarding `Cn1cc(-c2cc3nccnc3[nH]2)c2cc(O)ccc21` [Example 7, 1-methyl-3-(5H-pyrrolo[2,3-b]pyrazin-6-yl)-1H-indol-5-ol], the melting point fell in the range of 289 to 290 °C.

`COc1ccc2[nH]cc(-c3cc4nccnc4[nH]3)c2c1` [Example 11, 6-(5-methoxy-1H-indol-3-yl)-5H-pyrrolo[2,3-b]pyrazine] came in with a melting point of 268 to 271 °C.

For the compound `Cn1cc(-c2cc3cccnc3[nH]2)c2cc(N)ccc21` [Example 18, 1-Methyl-3-(1H-pyrrolo[2,3-b]pyridin-2-yl)-1H-indol-5-ylamine], the melting point was 247 to 248 °C.

In the case of `CC(C)(C)c1ccc(-c2[nH]c3nccnc3c2CCC#N)cc1` [Example 23], the melting point is 215 to 216 °C.

On to `CC(C)(C)c1ccc(-c2[nH]c3nccnc3c2CCCO)cc1` [Example 26, 3-[6-(4-tert-Butyl-phenyl)-5H-pyrrolo[2,3-b]pyrazin-7-yl]-propan-1-ol], for which the melting point lay within 187 to 189 °C.

Compound `CCOC(=O)COc1cc(-c2cc3nccnc3[nH]2)ccc1OC` [Example 27, [2-Methoxy-5-(5H-pyrrolo[2,3-b]pyrazin-6-yl)-phenoxy]acetic Acid Ethyl Ester] showed a melting point of 183 to 184 °C.

Compound `COc1ccc2[nH]cc(-c3cc4c(C(N)=O)ccnc4[nH]3)c2c1` [Example 42, 2-(5-Methoxy-1H-indol-3-yl)-1H-pyrrolo[2,3-b]pyridine-4 Carboxamide] returned a melting point of more than 320 °C.
